From the METLIN SMRT retention time set (Domingo-Almenara et al. 2019) come the findings set out here.

This data set in a line: gradient 5% acetonitrile 3 min, to 50% in 2 min, to 85% in 15 min, held 3 min, 100 µL/min. The settings on record: column: Zorbax Extend-C18 2.1 x 50 mm; eluents: water / acetonitrile, 0.1% formic acid. The gist of the method: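 Retention times come from adduct peaks that were picked computationally and then checked by hand. The standards, pure and pooled in mixtures of ~100 molecules, were run on a Zorbax Extend-C18 column (2.1 × 50 mm, 1.8 μm) at 100 μL/min with water and acetonitrile, each with 0.1% formic acid. Detection was by quadrupole time-of-flight mass spectrometry in positive and negative ionization mode, with a dead volume of 40 μL and a dwell volume of 900 μL.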
On to `O=C(NCCC1=CCCCC1)C(=O)Nc1ccc(Cl)cn1`, for which the RP-LC retention time turned out to be 1050 s. Under `CS(=O)(=O)Nc1ccc(Cc2noc(-c3ccc4[nH]cc(CCN)c4c3)n2)cc1` stands 686 s; under `O=C(Cc1cccc(C(F)(F)F)c1)N1CCc2nc[nH]c2C1`, 612 s; under `CC(C)n1cnc2cc(CNC(=O)Cc3ccccc3F)ccc21`, 623 s. The same measure for `O=C(NCCn1cc(SCC(=O)N2CCOCC2)c2ccccc21)c1ccc(F)cc1`: 733 s; for `CCOC(=O)CNC(=O)N1CCCC1c1ccccc1Cl` (configuration not stated): 804 s. `O=C(Nc1cnc(N2CCCC2)nc1)c1cccs1` showed an RP-LC retention time of 667 s. Under `CCC1(O)CCOC2(CCN(C(=O)CC3CCCC3)CC2)C1` (configuration not stated) stands 748 s. The same measure for `COc1cccc(N2C(=O)Nc3ccccc3C2(O)C(=O)N2CCN(c3ccccn3)CC2)c1` (configuration not stated): 603 s; for `COc1cc2ncc(S(=O)(=O)c3ccc(C)c(C)c3)c(N3CCN(C)CC3)c2cc1OC`: 629 s; for `CNC(=O)c1sc2nc(-c3cccc(OC)c3)c(NCCOC)n2c1C`: 696 s.

`O=C(NCCCn1c(-c2ccncc2)nc2cccnc21)Nc1ccc(F)cc1F` registered an RP-LC retention time of 652 s.

Take `Cc1ccsc1C(=O)N1CCCC2(CC1)CN(C)C(=O)O2` (configuration not stated): the RP-LC retention time was found to be 661 s. In the case of `O=C(Cn1nc2c(N3CCOCC3)nccn2c1=O)Nc1cc(C(F)(F)F)ccc1Cl`, the RP-LC retention time was 827 s. The same measure for `Cc1cc(C(N)=O)c2cccc(Cl)c2n1`: 621 s; for `CC(C)CC(=O)N1CC(F)(F)C[C@H]1c1nnc(-c2cnccn2)o1`: 703 s; for `CCn1cc(C(=O)Nc2ccc(C)c(F)c2)c(S(=O)(=O)N2CCSCC2)n1`: 901 s.

On to `NC(=O)COC1CCC12CCN(C(=O)C1CCCCCC1)CC2` (configuration not stated), for which the RP-LC retention time was 740 s. The same measure for `O=C(CCSc1nnc2ccc3ccccc3n12)Nc1ccc(F)cc1`: 878 s. Under `CCOC(=O)Cn1c(=O)c2c(nc3n2CC(C)CN3c2ccc(OCC)cc2)n(C)c1=O` (configuration not stated) stands 958 s. The same measure for `CCCn1c(=O)sc2cc(S(=O)(=O)N3CCC(C(=O)Nc4cccc(CC)c4)CC3)ccc21`: 969 s; for `COc1ccc(OC)c(NC(=O)COc2cc(C(F)(F)F)c3c(C)nn(C)c3n2)c1`: 1100 s; for `COc1ccc(-c2n[nH]c3c2C(c2ccc(O)c(OC)c2)NC3=O)cc1` (configuration not stated): 639 s. Regarding `O=C(O)CN1CCCc2c(cnn2Cc2ccccc2)C1=O`, the RP-LC retention time came to 656 s. The same measure for `COc1ccc2nc(NC(=O)CCCN3C(=O)C4C5C=CC(C5)C4C3=O)sc2c1` (configuration not stated): 817 s; for `Cc1noc(C2CN(CC(=O)N3CCN(c4ccc(Cl)cc4)CC3)C2)n1`: 590 s. Under `Cc1ccccc1-c1nocc1CCC(=O)O` stands 651 s; under `Cc1noc(C)c1CCC(=O)N1CC(n2cc(COc3ccc(F)cc3)nn2)C1`, 736 s; under `CCn1cc(C)c(C(=O)O)c1CC(=O)N(C)Cc1ccccc1`, 772 s. The same measure for `O=C(NCc1cccnc1)N(c1ccccc1)c1ccccc1`: 578 s; for `CCn1c(=O)c(NCc2cc(F)ccc2F)nc2ccncc21`: 568 s; for `COc1ccc(C(=O)CSc2nc3ccccc3[nH]2)cc1`: 647 s. Molecule `CC(CCc1ccccc1)NC(=O)C1CCN(S(C)(=O)=O)c2cc(Cl)ccc2O1` (configuration not stated) came in with an RP-LC retention time of 1070 s. Under `CSc1cccc(-n2ccc(=O)c(-c3nc(-c4ccccc4)no3)n2)c1` stands 971 s; under `CC(C)(C)c1csc(-c2csc(S(=O)(=O)NCc3cccs3)c2)n1`, 1180 s. Molecule `CCc1ccc(S(=O)(=O)N2CCC(n3cnnc3C)CC2)cc1` registered an RP-LC retention time of 715 s. Consider `Cc1noc(C)c1CCNC(=O)CN1C(=O)C2CCCCN2c2ccc(S(=O)(=O)N(C)C)cc21` (configuration not stated), for which the RP-LC retention time amounted to 796 s. For the molecule `Cc1ccc(S(=O)(=O)N2CCC(n3c(-c4ccoc4)nc4cccnc43)C2)cc1Cl` (configuration not stated), the RP-LC retention time came to 986 s. The same measure for `Cc1ccc(NC(=O)N2CCC(N3CCN(Cc4ccc(F)cc4)C(=O)C3=O)CC2)cc1Cl`: 831 s; for `Cc1ccc(S(=O)(=O)N2CCCCCC2c2nnc(C)o2)c(C)c1` (configuration not stated): 862 s; for `CCOC(=O)c1c(C)c(CCC(=O)N2CCN(c3ncccn3)CC2)n(C)c1C`: 765 s. Under `CC(C)NC(=O)CN1C(=O)CCSc2ccccc21` stands 708 s; under `COCc1noc(C2CN(CCc3ccccc3)CC23CCCC3)n1` (configuration not stated), 670 s; under `CCN1C(=O)COc2ccc(-c3noc(-c4ccccc4F)n3)cc21`, 1070 s. Take `CCN(C(=O)C1C(=O)NC2(C)CC1c1ccccc1O2)c1ccccc1` (configuration not stated): the RP-LC retention time amounted to 820 s. Under `CCOC(=O)Cc1csc(NC(=O)CCS(=O)(=O)c2ccccc2)n1` stands 844 s; under `COc1ccccc1N1CCN(S(=O)(=O)c2cc(-c3nc(C(C)C)cs3)cs2)CC1`, 1300 s; under `CCOc1ccc(C(=O)NCc2ccc3c(c2)Sc2ncccc2C(=O)N3CC)cc1`, 791 s.

In turn, `CCOC(=O)C1CCN(C(=O)C2CN(C(=O)c3ccc(F)c(F)c3)C2)CC1` yielded an RP-LC retention time of 696 s.

For the molecule `Cc1ccc(Cl)cc1NC(=O)NC(C)C(=O)N1CCc2ccccc21` (configuration not stated), the RP-LC retention time was determined as 945 s.

Regarding `Nc1ncnc(N2CCN(C(c3ccccc3)c3ccccc3)CC2)c1[N+](=O)[O-]`, the RP-LC retention time was found to be 698 s. Regarding `O=C(CCc1nc(-c2cccnc2)no1)NCCc1c[nH]c2ccccc12`, the RP-LC retention time came to 709 s. Regarding `CC1=NS(=O)(=O)N(Cc2ccccc2)C=C1C(=O)OCc1ccc(F)cc1F`, the RP-LC retention time came to 1090 s.

`c1cnc2c(c1)ccc1ncccc12` registered an RP-LC retention time of 674 s. In turn, `OC(CNCC(O)C1CCc2cc(F)ccc2O1)C1CCc2cc(F)ccc2O1` (configuration not stated) displayed an RP-LC retention time of 744 s. With `O=C(NCc1noc(-c2cccc(Cl)c2)n1)c1coc(-c2ccccc2)n1`, the RP-LC retention time came out at 1050 s. In the case of `COc1ccc(S(=O)(=O)N2CC3CN(C(=O)c4ccncc4)CC(C2)O3)cc1`, the RP-LC retention time turned out to be 621 s.

As to `CC(C)NC(=O)c1nsc(C(=O)NC2CC2)c1N`, the RP-LC retention time was determined as 713 s. Under `O=C(c1cc2c(s1)CCC(C(=O)N1CCN(c3ccccn3)CC1)C2)N1CCCCC1` (configuration not stated) stands 621 s.

As to `Cn1nc(-c2ccncc2)nc1C1CN(S(=O)(=O)c2cc(F)ccc2F)C1`, the RP-LC retention time was determined as 638 s. Under `O=[N+]([O-])c1c(NCCCO)cc(Nc2ccc(F)cc2)c2nonc12` stands 676 s. Molecule `O=C(Nc1ccc(C(F)(F)F)cc1)C1CCN(S(=O)(=O)c2ccc3[nH]c(=O)sc3c2)CC1` returned an RP-LC retention time of 924 s. In turn, `Cc1cc(S(=O)(=O)Nc2cccn3cnnc23)ccc1F` gave an RP-LC retention time of 686 s. For the molecule `COc1cc(=O)n2c(c1C(=O)NCCC1=CCCCC1)CCCC2`, the RP-LC retention time came out at 723 s.

`O=C(O)CNS(=O)(=O)c1cccc2nsnc12` had an RP-LC retention time of 595 s.

With `O=C1CCCC1C(=O)Nc1ccc2ccccc2c1` (configuration not stated), the RP-LC retention time is 884 s. The same measure for `CNC(=O)CSc1nc(-c2ccccc2)c(NC(=O)COc2ccccc2F)s1`: 806 s; for `COc1ccc(-c2nc3cnccn3c2Nc2c(C)cccc2C)cc1OC`: 784 s; for `Cc1nc(C)c(C(=O)N(C)C2CCc3nn(CC4CC4)c(=O)n3CC2)s1` (configuration not stated): 626 s. The same measure for `CN(CCc1noc(COc2ccccc2F)n1)C(=O)Nc1ccc(F)c(Cl)c1`: 966 s. Under `CN(C(=O)Cn1cccc1-c1nc(-c2ccc3c(c2)OCO3)no1)c1ccccc1` stands 1090 s; under `O=C(Cn1nc2n(c1=O)CCCCC2)Nc1cccc(Cl)c1`, 730 s; under `O=C(Nc1ccc(F)cc1F)c1cc2n(n1)CCCC2`, 912 s.

On to `Cc1nn2c(CNS(=O)(=O)c3ccc(F)cc3F)c(-c3ccccc3)nc2s1`, for which the RP-LC retention time came to 867 s. Consider `O=C(NCCNC(=O)Nc1cccc(Cl)c1)Nc1cccc(Cl)c1`, for which the RP-LC retention time worked out at 782 s. In turn, `CC1=C(C(=O)N(CC(=O)NCCc2ccccc2)c2ccc(Cl)cc2)SCCO1` yielded an RP-LC retention time of 956 s. Turning to `CC(C)n1nc(CNC(=O)C2CCC2)c2ccccc21`, the RP-LC retention time worked out at 812 s. For the molecule `O=C(CSc1nnc(Cc2ccccc2)o1)Nc1nc(-c2ccccc2)cs1`, the RP-LC retention time turned out to be 936 s. `C=CCN1C(=O)COc2ccc(-c3nc(NC(=O)C(CC)CC)sc3C)cc21` registered an RP-LC retention time of 1050 s. The same measure for `COc1ccc(C(=O)N2CCc3ccc(C(=O)Nc4ccc5c(c4)OCCO5)cc32)cc1`: 868 s; for `CC1CCN(C(CNC(=O)c2cc(-c3ccc4c(c3)OCCO4)on2)c2ccco2)CC1` (configuration not stated): 720 s.

In turn, `Cc1cc(Cl)ccc1-n1ncc2c(N3CCN(CCO)CC3)ncnc21` yielded an RP-LC retention time of 613 s.
